# Assay results reported in PMC6192554, “In vitro toxicity and efficacy of verdinexor, an exportin 1 inhibitor, on opportunistic viruses affecting immunocompromised individuals” (PLoS ONE, 2018).
# Key:
# histamine H1 receptor [1] = biological target: T1, histamine H1 receptor (Homo sapiens, UniProt P35367); assay: Histamine H1 receptor functional activity assay, agonist; type: biochemical; conditions: Study No. KS-1017, read-out: IC50 (50% inhibitory concentration)
# [2] = Cytotoxicity in BCBL-1 cells (CellTiter-Glo); type: cell-based; conditions: human
# Experimental: (§1) Cytotoxicity assays: Concurrent assessment of cytotoxicity was also performed for each study in the same cell line and with the same compound exposure. For KSHV, cell viability was assessed with the CellTiter-Glo Luminescent Cell Viability Assay (Promega) using manufacturer’s protocol. Luminescence was quantified on a luminometer. Standard methods were used to calculate the 50% cytotoxic level (CC50).
# [3] = Cytotoxicity in HFF cells, concurrent with HCMV assays; type: cell-based; conditions: human, human foreskin fibroblast cells (HFF)
# Experimental: Cytotoxicity assays: Concurrent assessment of cytotoxicity was also performed for each study in the same cell line and with the same compound exposure.
# For HCMV cytotoxicity assay was determined via neutral red uptake assay and was conducted as reported previously in HFF cells. Optical densities were determined at 550nm.
# Yield reduction assays for HCMV were performed on monolayers of HFF cells prepared in 96-well plates and incubated at 37°C for 1d to allow the cells to reach confluency. Media was then aspirated from the wells were infected at a high multiplicity of infection (MOI). At 1h following infection, the inocula were removed and the monolayers rinsed with fresh media. Compounds were then diluted in assay media consisting of MEM with Earl’s salts supplemented with 2% FBS, L-glutamine, penicillin, and gentamycin. Solutions ranging from 0.0032–10μM in primary assay and 0.032–100μM in secondary assay were added to the wells and the plates were incubated for various times, depending on the virus used and represents the length of a single replication cycle for the virus. A duplicate set of dilutions were also performed but remained uninfected to serve as a cytotoxicity control and received equal compound exposure. Supernatants from each of the infected wells were subsequently titered in a TCID50 assay to quantify the progeny virus. […]
# [4] = Cytotoxicity in Akata cells (CellTiter-Glo), concurrent with EBV assays; type: cell-based; conditions: human
# Experimental: as §1, with “(CC50). Cytotoxicity assay was performed in a manner analogous to KSHV (see above).” for “(CC50).”
# [5] = ferrets receiving 5mg/kg; cited from earlier work
# [6] = system: Epstein-Barr virus (EBV) Akata strain; assay: EBV primary assay, DNA hybridization in induced Akata cells; type: cell-based
# Experimental: EBV Akata strain was assayed in Akata cells (John Sixbey, LSU) latently infected with EBV (and therefore oncogenic). Cells were maintained in RPMI 1640, (Mediatech) with 10% FBS (Hyclone), L-glutamine, penicillin and gentamicin.
# For Primary assay, Akata cells latently infected with EBV were induced to undergo lytic infection by addition of 50μg/ml of a goat anti-human IgG [16] and a dose-range of verdinexor (0.032 to 100 μM) was added for 72hr. Denaturation buffer was added and an aliquot aspirated through an Immobilon nylon membrane (Millipore, Bedford, MA). Dried membranes were equilibrated in DIG Easy Hyb solution (Roche Diagnostics, Indianapolis, IN) at 56°C. Specific DIG-labeled probes for EBV (S1 Table). (Roche Diagnostics). Membranes with EBV DNA were hybridized overnight followed by washes in 0.2× SSC and 0.1× SSC both with 0.1% SDS. Detection of specifically bound DIG probe was performed with anti-DIG antibody (Roche Diagnostics). An image of the photographic film was captured and quantified with QuantityOne software (Bio-Rad), and the EC50 were interpolated.
# [7] = Cytotoxicity in HFF cells, concurrent with BKPyV assays; type: cell-based; conditions: human
# Experimental: as §1, with “(CC50). Cytotoxicity assay was performed in a manner analogous to KSHV above.” for “(CC50).”
# HPV-11 = HPV-11 transient origin-plasmid replication assay in HEK293 cells (qPCR); type: cell-based, human papillomavirus; conditions: Human papillomavirus, HPV-11, primary screen
# Experimental: HPV-11 and -18 were tested in HEK293 cells and primary human keratinocytes (PHK), respectively. PHKs were isolated from neonatal foreskins following circumcision according to IRB-approved protocols at UAB. They were grown in keratinocyte serum-free medium (Life Technologies) with mitomycin C-treated J2 feeder cells (Swiss 3T3 J2 fibroblasts; Elaine Fuchs, Rockefeller University). HEK 293 cells were maintained under standard conditions.
# Quantification of virus was determined via transient replication of an HPV-11 replication origin-containing plasmid in HEK293 cells co-transfected with an HPV-11 replicative DNA helicase E1 and origin binding E2 protein [20]. 293 cells were cultured with test compounds added 4hr post-transfection for 2 days. Low molecular weight DNA was isolated, digested with Dpn1 and exonuclease III to eliminate unreplicated DNA. The Dpn1-resistant DNA was then subjected to qPCR analyses amplifying a small portion of the replication origin [20]. In a negative control, the E1 expression vector was omitted or cultures were treated with the inhibitor cidofovir.
# Rev-GFP fusion = system: Rev-GFP fusion; parameters: method as in PMID 3025240; conditions: read-out: EC50, forced nuclear retention of Rev-GFP fusion; cited from earlier work
# histamine H1 receptor [8] = biological target: T1, histamine H1 receptor; assay: Histamine H1 receptor functional activity assay, antagonist; type: biochemical; conditions: Study No. KS-1017, read-out: IC50 (50% inhibitory concentration)
# T1 sequence (P35367 whole entry, species assumed): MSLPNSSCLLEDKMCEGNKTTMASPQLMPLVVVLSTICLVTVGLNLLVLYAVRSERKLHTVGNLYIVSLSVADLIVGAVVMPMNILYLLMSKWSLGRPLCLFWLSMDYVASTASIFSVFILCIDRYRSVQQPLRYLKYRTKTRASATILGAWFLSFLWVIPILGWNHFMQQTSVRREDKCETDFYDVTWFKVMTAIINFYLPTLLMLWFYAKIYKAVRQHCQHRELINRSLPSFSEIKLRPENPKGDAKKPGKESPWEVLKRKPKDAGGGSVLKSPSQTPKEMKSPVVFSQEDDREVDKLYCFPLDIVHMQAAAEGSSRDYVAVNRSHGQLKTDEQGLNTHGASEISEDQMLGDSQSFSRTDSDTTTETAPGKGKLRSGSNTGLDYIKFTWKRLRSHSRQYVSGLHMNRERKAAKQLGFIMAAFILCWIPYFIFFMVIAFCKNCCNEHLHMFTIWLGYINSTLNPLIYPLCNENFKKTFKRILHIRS
compound,measurement,setting,value
"O=C(C=Cn1cnc(-c2cc(C(F)(F)F)cc(C(F)(F)F)c2)n1)NNc1ccccn1 (stereo in doubt) [verdinexor, (E)-3-[3-[3,5-bis(trifluoromethyl)phenyl]-1,2,4-triazol-1-yl]-N'-pyridin-2-ylprop-2-enehydrazide]",IC50,histamine H1 receptor [1],> 10 µM
same,CC50,[2]; KSHV primary screen,2760 nM
same,CC50,[2]; KSHV secondary screen,1400 nM
same,CC50,[3]; HCMV primary screen,1.76 µM
same,CC50,[3]; HCMV secondary screen,73.3 µM
same,CC50,[4]; EBV assays,< 680 nM
same,CC50,[4]; EBV primary screen,680 nM
same,CC50,[4]; EBV secondary screen,340 nM
same,half life,[5],2 h
same,"SI (Selectivity Index, CC50/EC50)","[6]; EBV, primary screen, DNA hybridization",< 1
same,EC50,"[6]; human gammaherpesvirus 4, Akata",> 480 nM
same,CC50,[7]; BKPyV primary screen,10 µM
same,CC50,[7]; BKPyV secondary screen,9.38 µM
same,EC50,HPV-11,1650 nM
same,EC50,Rev-GFP fusion,160 nM
same,IC50,histamine H1 receptor [8],> 10 µM
